Assay results reported in PubChem BioAssay (NCI).
“And” between values parts separate entries of the source, which are not always exact repeats. Equal values may be shown once.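 Assay format: 96-well plates, 48-hour exposure. GI50 = concentration required for 50% inhibition of growth. At the TGI there is no net growth.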

Experiments:
Assay in all cases: NCI tumour cell line growth inhibition, 48 h
[1] = test system: M14 melanoma
[2] = test system: SNB-75 CNS
[3] = test system: HS 578T breast
[4] = test system: NCI-H460 lung
[5] = test system: ACHN renal
[6] = test system: SF-539 CNS
[7] = test system: SK-MEL-5 melanoma
[8] = test system: SN12C renal
[9] = test system: HCC-2998 colon
[10] = test system: SR leukemia
[11] = test system: MDA-MB-435
[12] = test system: BT-549 breast
[13] = test system: SNB-19 CNS
[14] = test system: CAKI-1 renal
[15] = test system: A549 NSCLC
[16] = test system: HL-60(TB) leukemia
[17] = test system: NCI-H226 lung
[18] = test system: TK-10 renal
[19] = test system: SK-OV-3 ovarian
[20] = test system: IGROV1 ovarian
[21] = test system: U251 CNS
[22] = test system: UACC-257 melanoma
[23] = test system: SW-620 colon
[24] = test system: MCF7 breast
[25] = test system: RXF 393 renal
[26] = test system: K-562 leukemia
[27] = test system: SF-295 CNS
[28] = test system: LOX IMVI melanoma
[29] = test system: DU-145 prostate
[30] = test system: MALME-3M melanoma
[31] = test system: MOLT-4 leukemia
[32] = test system: A498 renal
[33] = test system: NCI-H23 lung
[34] = test system: 786-0 renal
[35] = test system: SK-MEL-28 melanoma
[36] = test system: SF-268 CNS
[37] = test system: NCI-H522 lung
[38] = test system: RPMI-8226 leukemia
[39] = test system: T-47D breast
[40] = test system: UACC-62 melanoma
[41] = test system: HCT-116 colon
[42] = test system: UO-31 renal
[43] = test system: SK-MEL-2 melanoma
[44] = test system: HOP-62 NSCLC
[45] = test system: HT29 colon
[46] = test system: EKVX NSCLC
[47] = test system: COLO 205 colon
[48] = test system: PC-3 prostate
[49] = test system: OVCAR-5 ovarian
[50] = test system: OVCAR-3 ovarian
[51] = test system: NCI/ADR-RES ovarian
[52] = test system: OVCAR-8 ovarian
[53] = test system: HCT-15 colon
[54] = test system: MDA-MB-231 breast
[55] = test system: HOP-92 NSCLC
[56] = test system: OVCAR-4 ovarian
[57] = test system: KM12 colon
[58] = test system: CCRF-CEM leukemia

## Nc1ccc(S(=O)(=O)c2ccc(N)cc2)cc1
[1]
  GI50: > 100 µM
  TGI: > 100 µM
[2]
  GI50: > 100 µM
  TGI: > 100 µM
[3]
  GI50: 68.4 µM
  TGI: > 100 µM
[4]
  GI50: > 100 µM
  TGI: > 100 µM
[5]
  GI50: > 100 µM
  TGI: > 100 µM
[6]
  GI50: > 100 µM
  TGI: > 100 µM
[7]
  GI50: > 100 µM
  TGI: > 100 µM
[8]
  GI50: > 100 µM
  TGI: > 100 µM
[9]
  GI50: > 100 µM
  TGI: > 100 µM
[10]
  GI50: > 100 µM
  TGI: > 100 µM
[11]
  GI50: > 100 µM
  TGI: > 100 µM
[12]
  GI50: > 100 µM
  TGI: > 100 µM
[13]
  GI50: > 100 µM
  TGI: > 100 µM
[14]
  GI50: > 100 µM
  TGI: > 100 µM
[15]
  GI50: > 100 µM
  TGI: > 100 µM
[16]
  GI50: > 100 µM
  TGI: > 100 µM
[17]
  GI50: > 100 µM
  TGI: > 100 µM
[18]
  GI50: > 100 µM
  TGI: > 100 µM
[19]
  GI50: > 100 µM
  TGI: > 100 µM
[20]
  GI50: > 100 µM
  TGI: > 100 µM
[21]
  GI50: > 100 µM
  TGI: > 100 µM
[22]
  GI50: > 100 µM
  TGI: > 100 µM
[23]
  GI50: > 100 µM
  TGI: > 100 µM
[24]
  GI50: > 100 µM
  TGI: > 100 µM
[25]
  GI50: > 100 µM
  TGI: > 100 µM
[26]
  GI50: > 100 µM
  TGI: > 100 µM
[27]
  GI50: > 100 µM
  TGI: > 100 µM
[28]
  GI50: > 100 µM
  TGI: > 100 µM
[29]
  GI50: > 100 µM
  TGI: > 100 µM
[30]
  GI50: > 100 µM
  TGI: > 100 µM
[31]
  GI50: > 100 µM
  TGI: > 100 µM
[32]
  GI50: 64.8 µM
  TGI: > 100 µM
[33]
  GI50: > 100 µM
  TGI: > 100 µM
[34]
  GI50: > 100 µM
  TGI: > 100 µM
[35]
  GI50: > 100 µM
  TGI: > 100 µM
[36]
  GI50: > 100 µM
  TGI: > 100 µM
[37]
  GI50: > 100 µM
  TGI: > 100 µM
[38]
  GI50: > 100 µM
  TGI: > 100 µM
[39]
  GI50: > 100 µM
  TGI: > 100 µM
[40]
  GI50: > 100 µM
  TGI: > 100 µM
[41]
  GI50: > 100 µM
  TGI: > 100 µM
[42]
  GI50: > 100 µM
  TGI: > 100 µM
[43]
  GI50: > 100 µM
  TGI: > 100 µM
[44]
  GI50: > 100 µM
  TGI: > 100 µM
[45]
  GI50: > 100 µM
  TGI: > 100 µM
[46]
  GI50: > 100 µM
  TGI: > 100 µM
[47]
  GI50: > 100 µM
  TGI: > 100 µM
[48]
  GI50: > 100 µM
  TGI: > 100 µM
[49]
  GI50: > 100 µM
  TGI: > 100 µM
[50]
  GI50: > 100 µM
  TGI: > 100 µM
[51]
  GI50: > 100 µM
  TGI: > 100 µM
[52]
  GI50: > 100 µM
  TGI: > 100 µM
[53]
  GI50: > 100 µM
  TGI: > 100 µM
[54]
  GI50: > 100 µM
  TGI: > 100 µM
[55]
  GI50: > 100 µM
  TGI: > 100 µM
[56]
  GI50: > 100 µM
  TGI: > 100 µM
[57]
  GI50: > 100 µM
  TGI: > 100 µM
[58]
  GI50: > 100 µM
  TGI: > 100 µM

## COc1cc(C2C3=C(COC3=O)N(CCO)c3cc4c(cc32)OCO4)cc(OC)c1OC (stereo unspecified)
[1]
  GI50: 0.311 µM and 0.363 µM
  TGI: 0.926 µM and 1.38 µM
[2]
  GI50: 0.514 µM and 0.251 µM
  TGI: 12.5 µM and > 16.8 µM
[3]
  GI50: 0.276 µM and 0.268 µM
[4]
  GI50: 0.438 µM and 0.542 µM
  TGI: 12.5 µM and 3.4 µM
[5]
  GI50: 1.09 µM and 0.925 µM
  TGI: 12.5 µM and > 16.8 µM
[6]
  GI50: 0.323 µM and 0.434 µM
  TGI: 0.947 µM and 3.01 µM
[7]
  GI50: 0.359 µM and 0.561 µM
  TGI: 2.46 µM and 4.35 µM
[8]
  GI50: 1.25 µM and 1.13 µM
  TGI: 12.5 µM and > 16.8 µM
[9]
  GI50: 0.697 µM and 0.702 µM
  TGI: 6.21 µM and 5.11 µM
[10]
  GI50: 0.323 µM
  TGI: > 16.8 µM
[11]
  GI50: 0.175 µM and 0.151 µM
  TGI: 0.592 µM and 0.616 µM
[12]
  GI50: 4.33 µM and 0.834 µM
  TGI: 12.5 µM and 9.33 µM
[13]
  GI50: 0.408 µM and 0.72 µM
  TGI: 6.65 µM and > 16.8 µM
[14]
  GI50: 8.66 µM and 2.39 µM
  TGI: 12.5 µM and > 16.8 µM
[15]
  GI50: 0.595 µM and 1.06 µM
  TGI: 12.5 µM and > 16.8 µM
[16]
  GI50: 0.343 µM and 0.629 µM
[17]
  GI50: > 12.5 µM and 2.94 µM
  TGI: > 16.8 µM
[18]
  GI50: 1.24 µM and 2.73 µM
  TGI: 12.5 µM and > 16.8 µM
[19]
  GI50: 0.456 µM and 0.491 µM
  TGI: 7.71 µM and > 16.8 µM
[20]
  GI50: 0.328 µM and 0.625 µM
  TGI: 1.97 µM and 6.3 µM
[21]
  GI50: 0.5 µM and 0.631 µM
  TGI: 12.5 µM and > 16.8 µM
[22]
  TGI: 12.5 µM and > 16.8 µM
[23]
  GI50: 0.439 µM and 0.697 µM
  TGI: 12.5 µM and > 16.8 µM
[24]
  GI50: 0.409 µM and 0.426 µM
  TGI: 12.5 µM and > 16.8 µM
[25]
  GI50: 0.176 µM and 0.337 µM
  TGI: 0.501 µM and 0.931 µM
[26]
  GI50: 0.406 µM and 0.489 µM
  TGI: 12.5 µM and > 16.8 µM
[27]
  GI50: 0.537 µM and 0.235 µM
[28]
  GI50: 0.976 µM
  TGI: > 16.8 µM
[29]
  GI50: 0.342 µM and 0.55 µM
  TGI: 1.02 µM and 2.59 µM
[30]
  GI50: 0.532 µM and 0.745 µM
  TGI: 12.5 µM and > 16.8 µM
[31]
  GI50: 0.675 µM and 4.39 µM
  TGI: 12.5 µM and > 16.8 µM
[32]
  GI50: 0.257 µM and 0.407 µM
  TGI: 1.07 µM and 8.82 µM
[33]
  GI50: 0.412 µM and 0.574 µM
  TGI: 2.46 µM and > 16.8 µM
[34]
  GI50: 0.474 µM and 0.754 µM
  TGI: 12.5 µM and > 16.8 µM
[35]
  GI50: 0.706 µM and 1.08 µM
  TGI: 12.5 µM and > 16.8 µM
[36]
  GI50: 0.321 µM and 0.872 µM
  TGI: 2.05 µM and > 16.8 µM
[37]
  GI50: 0.173 µM and 0.26 µM
  TGI: 0.666 µM and 1.25 µM
[38]
  GI50: 0.521 µM and 0.715 µM
  TGI: 12.5 µM and > 16.8 µM
[39]
  GI50: 0.474 µM
  TGI: 12.5 µM
[40]
  GI50: 1 µM and 0.565 µM
  TGI: 12.5 µM and > 16.8 µM
[41]
  GI50: 0.468 µM and 0.524 µM
  TGI: 12.5 µM and 13.8 µM
[42]
  TGI: 12.5 µM and > 16.8 µM
[43]
  GI50: 0.298 µM and 0.979 µM
[44]
  GI50: 0.779 µM and 0.738 µM
  TGI: 12.5 µM and > 16.8 µM
[45]
  GI50: 0.403 µM and 0.585 µM
  TGI: 1.94 µM and 2.03 µM
[46]
  GI50: 6.65 µM and 1.03 µM
  TGI: 12.5 µM and > 16.8 µM
[47]
  GI50: 0.36 µM and 0.332 µM
  TGI: 1.02 µM and 0.765 µM
[48]
  GI50: 0.611 µM and 0.612 µM
  TGI: 12.5 µM and > 16.8 µM
[49]
  GI50: 1.66 µM and 0.5 µM
  TGI: 12.5 µM and > 16.8 µM
[50]
  GI50: 0.244 µM and 0.319 µM
  TGI: 0.542 µM and 0.668 µM
[51]
  GI50: 3.92 µM and 14.8 µM
  TGI: 12.5 µM and > 16.8 µM
[52]
  GI50: 0.427 µM and 0.77 µM
  TGI: 12.5 µM and > 16.8 µM
[53]
  GI50: 1.52 µM and 1.13 µM
  TGI: 12.5 µM and > 16.8 µM
[54]
  GI50: 0.971 µM and 1.6 µM
  TGI: 12.5 µM and > 16.8 µM
[55]
  GI50: 6.02 µM and 5.99 µM
  TGI: 12.5 µM and > 16.8 µM
[56]
  GI50: 0.706 µM and 0.987 µM
  TGI: 12.5 µM and > 16.8 µM
[57]
  GI50: 0.334 µM and 0.462 µM
  TGI: 2.31 µM and 8.86 µM
[58]
  GI50: 0.473 µM and 0.802 µM
  TGI: 12.5 µM and > 16.8 µM
